# Data: patent US20250163104A1, “MACROCYCLIC IMMUNOMODULATORS” (priority 2021, published 2025)
# Where a SMILES comes first, the peptide text is derived from it. Bridges are numbered along the chain shown (N, C = ends). [ ]: non-standard residue; d: D form. The star is where a group is joined. ξ: configuration not given here. Phe(4-CONH2) = NC(=O)c1ccc(C[C@H](N)C(=O)O)cc1; Phe(4-COOH) = N[C@@H](Cc1ccc(C(=O)O)cc1)C(=O)O; Bip = N[C@@H](Cc1ccc(-c2ccccc2)cc1)C(=O)O; Phe(3-CN) = N#Cc1cccc(C[C@H](N)C(=O)O)c1; Phe(3-Me) = Cc1cccc(C[C@H](N)C(=O)O)c1; Val(3-OH) = CC(C)(O)[C@H](N)C(=O)O; 4Pal = N[C@@H](Cc1ccncc1)C(=O)O; 2Thi = N[C@@H](Cc1cccs1)C(=O)O; 3Thi = N[C@@H](Cc1ccsc1)C(=O)O; Cha = N[C@@H](CC1CCCCC1)C(=O)O; Ile(3ξ) = CCC(C)[C@H](N)C(=O)O; Thr(3ξ) = CC(O)[C@H](N)C(=O)O; Carboxymethyl = O=C(O)C*; Orn = NCCC[C@H](N)C(=O)O; Dab = NCC[C@H](N)C(=O)O
# Biological target: T1, human PD-1 / PD-L1-Ig binding on Jurkat cell line over-expressing human PD-1 (Jurkat-PD-1) (Homo sapiens, UniProt Q15116)
# T1 construct: expressed in transfected cells; host or cells: Jurkat
# T1 sequence (Q15116 25-288): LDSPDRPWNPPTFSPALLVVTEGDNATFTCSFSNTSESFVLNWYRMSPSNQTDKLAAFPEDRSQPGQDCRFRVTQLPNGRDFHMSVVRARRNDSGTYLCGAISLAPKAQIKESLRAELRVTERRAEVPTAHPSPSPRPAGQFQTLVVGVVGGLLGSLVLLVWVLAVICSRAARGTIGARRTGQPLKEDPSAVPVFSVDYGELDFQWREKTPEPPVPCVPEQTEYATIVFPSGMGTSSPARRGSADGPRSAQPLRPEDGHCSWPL
# Assay: Jurkat-PD-1 Cell Binding High-Content Screening Assay (CBA)
# Assay type: cell-based
# Settings: Jurkat HPD1_PDL1 IC50, Jurkat-PD-1 cells, PE-labeled PD-L1-Ig 20 nM final
# Outline: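 Jurkat cells over-expressing human PD-1, in DMEM/10% FCS, pre-incubated with compound 2 h at 37° C. PE-labeled human PD-L1-Ig (20 nM final) added for 1 h; cells fixed in paraformaldehyde with Hoechst 33342 nuclear stain, washed, and bound fluorescence quantified by high-content imaging.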
row,SMILES,IC50
1,CCC(C)[C@@H]1NC(=O)[C@H](Cc2ccc(-c3ccccc3)cc2)NC(=O)[C@H](CC(C)C)NC(=O)[C@H](Cc2cccc(C)c2)NC(=O)[C@H](CC(=O)O)NC(=O)[C@H](Cc2ccc(C(=O)O)cc2)NC(=O)[C@H](Cc2ccncc2)NC(=O)CSC[C@@H](C(=O)N[C@H](C)C(N)=O)NC(=O)[C@H](C(C)O)NC(=O)[C@H](C(C)C)NC(=O)[C@H](CC2CCCCC2)NC(=O)[C@H](CCN)NC(=O)[C@@H](CC(C)C)NC(=O)[C@H](Cc2cnc[nH]2)NC1=O (stereo partly drawn) [Compound 2611] ({CH2CO}-[4Pal][Phe(4-COOH)]D[Phe(3-Me)]L[Bip][Ile(3ξ)]H[dL][Dab][Cha]V[Thr(3ξ)]C[dA]-NH2; thioether N-14),19.2 nM

# Same assay, conditions: Jurkat-PD-1 cells, PE-labeled PD-L1-Ig 20 nM final; read-out: Jurkat HPD1_PDL1 IC50
row,SMILES,IC50
1,CC(C)C[C@@H]1NC(=O)[C@H](Cc2c[nH]c3ccccc23)NC(=O)[C@H](CC(=O)O)NC(=O)[C@H](Cc2ccc(OCC(=O)O)cc2)NC(=O)[C@H](C(C)O)NC(=O)CSC[C@@H](C(N)=O)NC(=O)[C@H](CO)NC(=O)[C@H](C(C)C)NC(=O)[C@H](CC2CCCCC2)NC(=O)[C@H](Cc2cnc[nH]2)NC(=O)[C@@H](CC(C)C)NC(=O)[C@H](CCC(=O)O)NC(=O)[C@H](C(C)C)NC(=O)[C@H](Cc2ccc(-c3ccccc3)cc2)NC1=O (stereo partly drawn) [Compound 2609] ({CH2CO}-[Thr(3ξ)]Y(Carboxymethyl)DWL[Bip]VE[dL]H[Cha]VSC-NH2; thioether N-14),89.1 nM
2,CC(C)C[C@@H]1NC(=O)[C@H](Cc2c[nH]c3ccccc23)NC(=O)[C@H](CC(=O)O)NC(=O)[C@H](Cc2ccc(OCC(=O)O)cc2)NC(=O)[C@H](C(C)O)NC(=O)CSC[C@@H](C(N)=O)NC(=O)[C@H](CO)NC(=O)[C@H](C(C)C)NC(=O)[C@H](CC2CCCCC2)NC(=O)[C@H](CCC(=O)O)NC(=O)[C@@H](CC(C)C)NC(=O)[C@H](Cc2cnc[nH]2)NC(=O)[C@H](C(C)C)NC(=O)[C@H](Cc2ccc(-c3ccccc3)cc2)NC1=O (stereo partly drawn) [Compound 2610] ({CH2CO}-[Thr(3ξ)]Y(Carboxymethyl)DWL[Bip]VH[dL]E[Cha]VSC-NH2; thioether N-14),78.3 nM
3,CC(C)C[C@H]1NC(=O)[C@H](CCN)NC(=O)[C@H](C(C)C)NC(=O)[C@H](Cc2ccc(-c3ccccc3)cc2)NC(=O)[C@H](C(C)C)NC(=O)[C@H](Cc2c[nH]c3ccccc23)NC(=O)[C@H](CC(=O)O)NC(=O)[C@H](Cc2ccc(OCC(=O)O)cc2)NC(=O)[C@H](Cc2ccsc2)NC(=O)CSC[C@@H](C(=O)N[C@H](CC(N)=O)C(N)=O)NC(=O)[C@H](CCCCN)NC(=O)[C@H](C(C)C)NC(=O)[C@H](CC2CCCCC2)NC(=O)[C@H](CCN)NC1=O [Compound 2612] ({CH2CO}-[3Thi]Y(Carboxymethyl)DWV[Bip]V[Dab][dL][Dab][Cha]VKC[dN]-NH2; thioether N-14),5.9 nM
4,CC(=O)NCCCC[C@@H]1NC(=O)[C@H](C(C)C)NC(=O)[C@H](CC2CCCCC2)NC(=O)[C@H](CCN)NC(=O)[C@@H](CC(C)C)NC(=O)[C@H](CCN)NC(=O)[C@H](C(C)C)NC(=O)[C@H](Cc2ccc(-c3ccccc3)cc2)NC(=O)[C@H](C(C)C)NC(=O)[C@H](Cc2c[nH]c3ccccc23)NC(=O)[C@H](CC(=O)O)NC(=O)[C@H](Cc2ccc(OCC(=O)O)cc2)NC(=O)[C@H](Cc2ccsc2)NC(=O)CSC[C@@H](C(=O)N[C@@H](CCN)C(N)=O)NC1=O [Compound 2613] ({CH2CO}-[3Thi]Y(Carboxymethyl)DWV[Bip]V[Dab][dL][Dab][Cha]VK(Ac)C[Dab]-NH2; thioether N-14),11 nM
5,CC(C)C[C@H]1NC(=O)[C@H](CCN)NC(=O)[C@H](C(C)C)NC(=O)[C@H](Cc2ccc(-c3ccccc3)cc2)NC(=O)[C@H](C(C)C)NC(=O)[C@H](Cc2c[nH]c3ccccc23)NC(=O)[C@H](CC(=O)O)NC(=O)[C@H](Cc2ccc(OCC(=O)O)cc2)NC(=O)[C@H](Cc2ccsc2)NC(=O)CSC[C@@H](C(N)=O)NC(=O)[C@H](CCCCN)NC(=O)[C@H](C(C)C)NC(=O)[C@H](CC2CCCCC2)NC(=O)[C@H](CCN)NC1=O [Compound 2614] ({CH2CO}-[3Thi]Y(Carboxymethyl)DWV[Bip]V[Dab][dL][Dab][Cha]VKC-NH2; thioether N-14),7 nM
6,Cc1cccc(C[C@@H]2NC(=O)[C@H](CC(=O)O)NC(=O)[C@H](Cc3ccc(OCC(=O)O)cc3)NC(=O)[C@H](Cc3ccsc3)NC(=O)CSC[C@@H](C(=O)N[C@@H](CCN)C(N)=O)NC(=O)[C@H](CO)NC(=O)[C@H](C(C)(C)O)NC(=O)[C@H](CC3CCCCC3)NC(=O)[C@H](CCN)NC(=O)[C@@H](CC(C)C)NC(=O)[C@H](CCCN)NC(=O)[C@H](Cc3ccc(OCC(=O)O)cc3)NC(=O)[C@H](Cc3ccc(-c4ccccc4)cc3)NC(=O)[C@H](Cc3ccc(OCC(=O)O)cc3)NC2=O)c1 [Compound 2615] ({CH2CO}-[3Thi]Y(Carboxymethyl)D[Phe(3-Me)]Y(Carboxymethyl)[Bip]Y(Carboxymethyl)[Orn][dL][Dab][Cha][Val(3-OH)]SC[Dab]-NH2; thioether N-14),3.7 nM
7,Cc1cccc(C[C@@H]2NC(=O)[C@H](CC(=O)O)NC(=O)[C@H](Cc3ccc(C(=O)O)cc3)NC(=O)[C@H](Cc3ccsc3)NC(=O)CSC[C@@H](C(=O)N[C@@H](CCN)C(N)=O)NC(=O)[C@H](CO)NC(=O)[C@H](C(C)(C)O)NC(=O)[C@H](CC3CCCCC3)NC(=O)[C@H](CCN)NC(=O)[C@@H](CC(C)C)NC(=O)[C@H](CCCN)NC(=O)[C@H](Cc3ccc(OCC(=O)O)cc3)NC(=O)[C@H](Cc3ccc(-c4ccccc4)cc3)NC(=O)[C@H](Cc3ccc(OCC(=O)O)cc3)NC2=O)c1 [Compound 2617] ({CH2CO}-[3Thi][Phe(4-COOH)]D[Phe(3-Me)]Y(Carboxymethyl)[Bip]Y(Carboxymethyl)[Orn][dL][Dab][Cha][Val(3-OH)]SC[Dab]-NH2; thioether N-14),3.1 nM
8,Cc1cccc(C[C@@H]2NC(=O)[C@H](CC(=O)O)NC(=O)[C@H](Cc3ccc(C(=O)O)cc3)NC(=O)[C@H](Cc3ccncc3)NC(=O)CSC[C@@H](C(=O)N[C@@H](CCN)C(N)=O)NC(=O)[C@H](CO)NC(=O)[C@H](C(C)(C)O)NC(=O)[C@H](CC3CCCCC3)NC(=O)[C@H](CCN)NC(=O)[C@@H](CC(C)C)NC(=O)[C@H](CCCN)NC(=O)[C@H](Cc3ccc(OCC(=O)O)cc3)NC(=O)[C@H](Cc3ccc(-c4ccccc4)cc3)NC(=O)[C@H](Cc3ccc(OCC(=O)O)cc3)NC2=O)c1 [Compound 2622] ({CH2CO}-[4Pal][Phe(4-COOH)]D[Phe(3-Me)]Y(Carboxymethyl)[Bip]Y(Carboxymethyl)[Orn][dL][Dab][Cha][Val(3-OH)]SC[Dab]-NH2; thioether N-14),2.7 nM
9,Cc1cccc(C[C@@H]2NC(=O)[C@H](CC(=O)O)NC(=O)[C@H](Cc3ccc(OCC(=O)O)cc3)NC(=O)[C@H](Cc3ccncc3)NC(=O)CSC[C@@H](C(=O)N[C@@H](CCN)C(N)=O)NC(=O)[C@H](CO)NC(=O)[C@H](C(C)(C)O)NC(=O)[C@H](CC3CCCCC3)NC(=O)[C@H](CCN)NC(=O)[C@@H](CC(C)C)NC(=O)[C@H](CCCN)NC(=O)[C@H](Cc3ccc(O)cc3)NC(=O)[C@H](Cc3ccc(-c4ccccc4)cc3)NC(=O)[C@H](Cc3ccc(C(N)=O)cc3)NC2=O)c1 [Compound 2623] ({CH2CO}-[4Pal]Y(Carboxymethyl)D[Phe(3-Me)][Phe(4-CONH2)][Bip]Y[Orn][dL][Dab][Cha][Val(3-OH)]SC[Dab]-NH2; thioether N-14),4.6 nM
10,Cc1cccc(C[C@@H]2NC(=O)[C@H](CC(=O)O)NC(=O)[C@H](Cc3ccc(C(=O)O)cc3)NC(=O)[C@H](Cc3ccncc3)NC(=O)CSC[C@@H](C(=O)N[C@@H](CCN)C(N)=O)NC(=O)[C@H](CO)NC(=O)[C@H](C(C)(C)O)NC(=O)[C@H](CC3CCCCC3)NC(=O)[C@H](CCN)NC(=O)[C@@H](CC(C)C)NC(=O)[C@H](CCCN)NC(=O)[C@H](Cc3ccc(OCC(=O)O)cc3)NC(=O)[C@H](Cc3ccc(-c4ccccc4)cc3)NC(=O)[C@H](Cc3ccc(C(=O)O)cc3)NC2=O)c1 [Compound 2624] ({CH2CO}-[4Pal][Phe(4-COOH)]D[Phe(3-Me)][Phe(4-COOH)][Bip]Y(Carboxymethyl)[Orn][dL][Dab][Cha][Val(3-OH)]SC[Dab]-NH2; thioether N-14),5.7 nM
11,Cc1cccc(C[C@@H]2NC(=O)[C@H](CC(=O)O)NC(=O)[C@H](Cc3ccc(C(=O)O)cc3)NC(=O)[C@H](Cc3cccs3)NC(=O)CSC[C@@H](C(=O)N[C@@H](CCN)C(N)=O)NC(=O)[C@H](CO)NC(=O)[C@H](C(C)(C)O)NC(=O)[C@H](CC3CCCCC3)NC(=O)[C@H](CCN)NC(=O)[C@@H](CC(C)C)NC(=O)[C@H](CCCN)NC(=O)[C@H](Cc3ccc(OCC(=O)O)cc3)NC(=O)[C@H](Cc3ccc(-c4ccccc4)cc3)NC(=O)[C@H](Cc3ccc(C(=O)O)cc3)NC2=O)c1 [Compound 2625] ({CH2CO}-[2Thi][Phe(4-COOH)]D[Phe(3-Me)][Phe(4-COOH)][Bip]Y(Carboxymethyl)[Orn][dL][Dab][Cha][Val(3-OH)]SC[Dab]-NH2; thioether N-14),5.7 nM
12,Cc1cccc(C[C@@H]2NC(=O)[C@H](CC(=O)O)NC(=O)[C@H](Cc3cccc(C#N)c3)NC(=O)[C@H](Cc3ccncc3)NC(=O)CSC[C@@H](C(=O)N[C@@H](CCN)C(N)=O)NC(=O)[C@H](CO)NC(=O)[C@H](C(C)(C)O)NC(=O)[C@H](CC3CCCCC3)NC(=O)[C@H](CCN)NC(=O)[C@@H](CC(C)C)NC(=O)[C@H](CCCN)NC(=O)[C@H](Cc3ccc(OCC(=O)O)cc3)NC(=O)[C@H](Cc3ccc(-c4ccccc4)cc3)NC(=O)[C@H](Cc3ccc(C(=O)O)cc3)NC2=O)c1 [Compound 2626] ({CH2CO}-[4Pal][Phe(3-CN)]D[Phe(3-Me)][Phe(4-COOH)][Bip]Y(Carboxymethyl)[Orn][dL][Dab][Cha][Val(3-OH)]SC[Dab]-NH2; thioether N-14),10.7 nM
